Measurements published in patent US20040121316A1 (priority 2002, published 2004).

system: wild-type HIV-1 strain IIIB; assay: microbe, parasite or virus in culture; type: cell-based; set-up: scale not given here; settings: not given

SMILES | EC50 | EC50 (nM)
CCOP(=O)(CCNCc1ccc(CC(NC(=O)OC2COC3OCCC23)C(O)CN(CC(C)C)S(=O)(=O)c2ccc(OC)cc2)cc1)OCC (centres unmarked) [drawing 619 R1=Et R2=Et] | + + + | 
CCOP(=O)(COc1ccc(C[C@H](NC(=O)O[C@H]2CO[C@H]3OCC[C@H]32)[C@H](O)CN(CC(C)C)S(=O)(=O)c2ccc([N+](=O)[O-])cc2)cc1)OCC |  | + +

same assay, conditions: Human immunodeficiency virus 1, IIIB

SMILES | EC50
CCOC(=O)CNP(=O)(COc1ccc(CC(NC(=O)OC2COC3OCCC23)C(O)CN(CC(C)C)S(=O)(=O)c2ccc(OC)cc2)cc1)NCC(=O)OCC (centres unmarked) [drawing 612 R1=Gly-Et R2=Gly-Et] | 50 to 500 nM
COc1ccc(S(=O)(=O)N(CC2CCN(C=O)CC2)CC(O)C(Cc2ccc(OCP(=O)(O)O)cc2)NC(=O)OC2COC3OCCC23)cc1 (centres unmarked) | > 5000 nM
CCCCOC(=O)CNP(=O)(COc1ccc(CC(NC(=O)OC2COC3OCCC23)C(O)CN(CC(C)C)S(=O)(=O)c2ccc(OC)cc2)cc1)NCC(=O)OCCCC (centres unmarked) [drawing 612 R1=Gly-Bu R2=Gly-Bu] | < 50 nM
CCOC(=O)C(CC(C)C)NP(=O)(COc1ccc(CC(NC(=O)OC2COC3OCCC23)C(O)CN(CC(C)C)S(=O)(=O)c2ccc(OC)cc2)cc1)NC(CC(C)C)C(=O)OCC (centres unmarked) [drawing 612 R1=Leu-Et R2=Leu-Et] | < 50 nM
COc1ccc(S(=O)(=O)N(CC(C)C)CC(O)C(Cc2ccc(OCP(=O)(OC(C)C)OC(C)C)cc2)NC(=O)OC2COC3OCCC23)cc1 (centres unmarked) [drawing 608 R1=OiPr R2=OiPr] | < 50 nM
CC(C)CN(CC(O)C(Cc1ccc(OCP(=O)(O)O)cc1)NC(=O)OC1COC2OCCC12)S(=O)(=O)c1ccc(C(F)(F)F)cc1 (centres unmarked) | 500 to 5000 nM
COc1ccc(S(=O)(=O)N(CC(C)C)CC(O)C(Cc2ccccc2)NC(=O)OC2COC3OCCC23)cc1OCP(=O)(OCc1ccccc1)OCc1ccccc1 (centres unmarked) | 500 to 5000 nM
CC(C)CN(CC(O)C(Cc1ccc(OCP(=O)(O)O)cc1)NC(=O)OC1COC2OCCC12)S(=O)(=O)c1ccccc1 (centres unmarked) | > 5000 nM
COc1ccc(S(=O)(=O)N(CC(C)C)CC(O)C(Cc2ccc(OCP(=O)(OC)OC)cc2)NC(=O)OC2COC3OCCC23)cc1 (centres unmarked) [drawing 608 R1=OMe R2=OMe] | < 50 nM
COc1ccc(S(=O)(=O)N(CC(C)C)CC(O)C(Cc2ccc(OCP(=O)(OCC(F)(F)F)OCC(F)(F)F)cc2)NC(=O)OC2COC3OCCC23)cc1 (centres unmarked) [drawing 608 R1=OCH2CF3 R2=OCH2CF3] | > 5000 nM
CCOP(=O)(COc1ccc(CC(NC(=O)OC2COC3OCCC23)C(O)CN(CC2CCN(C=O)CC2)S(=O)(=O)c2ccc(OC)cc2)cc1)OCC (centres unmarked) | > 5000 nM
CCCCOC(=O)C(C)NP(=O)(COc1ccc(CC(NC(=O)OC2COC3OCCC23)C(O)CN(CC(C)C)S(=O)(=O)c2ccc(OC)cc2)cc1)NC(C)C(=O)OCCCC (centres unmarked) [drawing 612 R1=Ala-Bu R2=Ala-Bu] | < 50 nM
COc1ccc(S(=O)(=O)N(CC2CCNCC2)CC(O)C(Cc2ccc(O)cc2)NC(=O)OC2COC3OCCC23)cc1 (centres unmarked) | > 5000 nM
COc1ccc(S(=O)(=O)N(CC(C)C)CC(O)C(Cc2ccc(OCP(=O)(O)NC(C)C(=O)O)cc2)NC(=O)OC2COC3OCCC23)cc1 (centres unmarked) [drawing 614 R1=OH R2=Ala-OH] | > 5000 nM
CCOP(=O)(COc1ccc(CC(NC(=O)OC2COC3OCCC23)C(O)CN(CC(C)C)S(=O)(=O)c2ccc(OC)cc2)cc1)OCC (centres unmarked) [drawing 608 R1=OEt R2=OEt] | < 50 nM
CC(C)CN(CC(O)C(Cc1ccc(OCP(=O)(O)O)cc1)NC(=O)OC1COC2OCCC12)S(=O)(=O)N1CCN(C)CC1 (centres unmarked) | > 5000 nM
CC(C)CN(CC(O)C(Cc1ccc(OCP(=O)(O)O)cc1)NC(=O)OC1COC2OCCC12)S(=O)(=O)c1ccc(O)cc1 (centres unmarked) [drawing 609 R1=OH R2=OH] | 500 to 5000 nM
CCOP(=O)(COc1ccc(CC(NC(=O)OC2COC3OCCC23)C(O)CN(CC(C)C)S(=O)(=O)c2ccc(O)cc2)cc1)OCC (centres unmarked) [drawing 609 R1=Et R2=Et] | < 50 nM
CC(C)CN(CC(O)C(Cc1ccc(OCP(=O)(O)O)cc1)NC(=O)OC1COC2OCCC12)S(=O)(=O)c1ccc(OC(F)(F)F)cc1 (centres unmarked) | 500 to 5000 nM
CC(C)CN(C[C@@H](O)[C@H](Cc1ccccc1)NC(=O)O[C@H]1CO[C@H]2OCC[C@H]21)S(=O)(=O)c1ccc(N)cc1 [TMC114, reference compound] | < 50 nM
CCOP(=O)(COc1ccc(CC(NC(=O)OC2COC3OCCC23)C(O)CN(CC2CCN(C)CC2)S(=O)(=O)c2ccc(OC)cc2)cc1)OCC (centres unmarked) | > 5000 nM
CCOP(=O)(COc1ccc2c(c1)CN(CC(NC(=O)OC1COC3OCCC13)C(O)CN(CC(C)C)S(=O)(=O)c1ccc(OC)cc1)C2)OCC (centres unmarked) | > 5000 nM
CC(C)CN(CC(O)C(Cc1ccc(OCP(=O)(O)O)cc1)NC(=O)OC1COC2OCCC12)S(=O)(=O)c1ccc(F)cc1 (centres unmarked) | 500 to 5000 nM
COc1ccc(S(=O)(=O)N(CC(C)C)CC(O)C(Cc2ccc(CNCCP(=O)(O)O)cc2)NC(=O)OC2COC3OCCC23)cc1 (centres unmarked) [drawing 619 R1=H R2=H] | > 5000 nM

same assay, conditions: Human immunodeficiency virus 1, IIIB, MT2, 120 h, read-out: Anti-HIV-1 Cell Culture Activity EC50

SMILES | EC50
CCCCOC(=O)C(CC(C)C)NP(=O)(COc1ccc(CC(NC(=O)OC2COC3OCCC23)C(O)CN(CC(C)C)S(=O)(=O)c2ccc(OC)cc2)cc1)NC(CC(C)C)C(=O)OCCCC (centres unmarked) [Example 16h] | 120 ± 42 nM
CCOC(=O)CNP(=O)(COc1ccc(CC(NC(=O)OC2COC3OCCC23)C(O)CN(CC(C)C)S(=O)(=O)c2ccc(OC)cc2)cc1)NCC(=O)OCC (centres unmarked) [Compound 16a] | 330 ± 230 nM
CCCCOC(=O)C(CC)NP(=O)(COc1ccc(CC(NC(=O)OC2COC3OCCC23)C(O)CN(CC(C)C)S(=O)(=O)c2ccc(OC)cc2)cc1)NC(CC)C(=O)OCCCC (centres unmarked) [Example 16f] | 4.8 ± 1.8 nM

same assay, conditions: read-out: EC50

SMILES | EC50
CC(C)CN(CC(O)C(Cc1ccc(O)cc1)NC(=O)OC1COC2OCCC12)S(=O)(=O)c1ccc(OCP(=O)(O)O)cc1 (centres unmarked) [OH, OH] | > 5000 nM
COc1ccc(S(=O)(=O)N(CC(C)C)C[C@@H](O)[C@H](Cc2ccc(OCP(=O)(O)O)cc2)NC(=O)O[C@H]2CO[C@H]3OCC[C@H]32)cc1 [GS8373] | 4800 nM
CC(C)CN(C[C@@H](O)[C@H](Cc1ccc([N+](=O)[O-])cc1)NC(=O)O[C@H]1CO[C@H]2OCC[C@H]21)S(=O)(=O)c1ccc(OCP(=O)(Oc2ccccc2)Oc2ccccc2)cc1 [NO2, phenol] | < 50 nM
CCOC(=O)C(CC)NP(=O)(COc1ccc(CC(NC(=O)OC2COC3OCCC23)C(O)CN(CC(C)C)S(=O)(=O)c2ccc(OC)cc2)cc1)Oc1ccccc1 (centres unmarked) [Example 16576] | 12.6 ± 4.8 nM
CC(C)CN(C[C@@H](OP(=O)(O)O)[C@H](Cc1ccccc1)NC(=O)O[C@H]1CCOC1)S(=O)(=O)c1ccc(N)cc1 [Phosphate prodrug of ampenavir] | 50 to 500 nM
COc1ccc(S(=O)(=O)N(CC(C)C)C[C@@H](OP(=O)(O)O)[C@H](Cc2ccccc2)NC(=O)O[C@H]2CO[C@H]3OCC[C@H]32)cc1 [Phosphate prodrug of 94-003] | < 50 nM
CC(C)CN(CC(O)C(Cc1ccc(O)cc1)NC(=O)OC1COC2OCCC12)S(=O)(=O)c1ccc(OCP(=O)(OCc2ccccc2)OCc2ccccc2)cc1 (centres unmarked) [OH, OBn] | 50 to 500 nM
CC(C)CN(CC(O)C(Cc1ccc(OCCN(C)C)cc1)NC(=O)OC1COC2OCCC12)S(=O)(=O)c1ccc(OCP(=O)(O)O)cc1 (centres unmarked) [OC2H4NMe2, OH] | 500 to 5000 nM
CC(C)CN(CC(O)C(Cc1ccc(OCCN(C)C)cc1)NC(=O)OC1COC2OCCC12)S(=O)(=O)c1ccc(OCP(=O)(OCc2ccccc2)OCc2ccccc2)cc1 (centres unmarked) [OC2H4-NMe2, OBn] | 50 to 500 nM
